Measurements from US7229997B2, “Compounds and their use” (Biovitrum AB, priority 2002, dated 2007).

Biological target: T1, human 5-HT2c receptor (Homo sapiens, UniProt P28335)
T1 construct: expressed in transfected cells
T1 sequence (P28335 33-458): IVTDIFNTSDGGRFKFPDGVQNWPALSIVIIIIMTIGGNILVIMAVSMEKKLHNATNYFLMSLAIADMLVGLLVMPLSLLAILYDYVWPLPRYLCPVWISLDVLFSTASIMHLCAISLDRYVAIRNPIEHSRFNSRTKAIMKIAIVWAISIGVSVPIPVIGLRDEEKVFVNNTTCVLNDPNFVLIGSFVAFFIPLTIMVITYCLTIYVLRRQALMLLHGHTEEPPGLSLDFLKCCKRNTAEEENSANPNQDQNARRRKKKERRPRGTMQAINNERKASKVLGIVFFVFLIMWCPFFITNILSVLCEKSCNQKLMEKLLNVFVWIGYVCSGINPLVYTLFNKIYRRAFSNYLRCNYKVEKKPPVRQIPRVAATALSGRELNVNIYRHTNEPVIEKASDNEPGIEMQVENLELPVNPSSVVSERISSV
Assay: 5-HT2c receptor affinity assay (displacement of 3H-labelled 5-HT, Scintillation Proximity Assay)
Assay type: binding
Conditions: not given
Experimental: The 5-HT2c receptor affinity of compounds in the Examples was determined in competition experiments, where the ability of each compound in serial dilution to displace ^3H-labelledlabeled 5-HT, bound to membranes prepared from a transfected HEK293 cell line stably expressing the human 5-HT2c receptor protein, was monitored by Scintillation Proximity Assay technology. Non-specific binding was defined using 5 μM mianserin.

| SMILES | Ki |
| --- | --- |
| FC(F)(F)c1ccc(N2CCNCC2)nc1OCc1ccco1 [Example 25, 1-[6-(Furan-2-ylmethoxy)-5-trifluoromethyl-pyridin-2-yl]-piperazine, acetate] | 14 nM |
| COc1ccc(F)cc1COc1nc(N2CCNCC2)ccc1C(F)(F)F [Example 36, 1-[6-(5-Fluoro-2-methoxy-benzyloxy)-5-trifluoromethyl-pyridin-2-yl]-piperazine, acetate] | 5 nM |
| CCSc1nc(N2CCNCC2)ccc1C(F)(F)F [Example 17, 1-(6-Ethylsulfanyl-5-trifluoromethyl-pyridin-2-yl)-piperazine, acetate] | 15 nM |
| FC(F)(F)c1ccc(N2CCNCC2)nc1SCc1ccccc1Cl [Example 15, 1-[6-(2-Chloro-benzylsulfanyl)-5-trifluoromethyl-pyridin-2-yl]-piperazine, acetate] | 1 nM |
| CCSc1nc(N2CCNC[C@H]2C)ccc1C(F)(F)F [Example 30, 1-(6-Ethylsulfanyl-5-trifluoromethyl-pyridin-2-yl)-2-(R)-methyl-piperazine, acetate] | 24 nM |

Same assay, conditions: membranes from transfected HEK293 cells expressing human 5-HT2c receptor; 3H-5-HT radioligand; read-out: 5-HT2C receptor Affinity Ki

| SMILES | Ki |
| --- | --- |
| C[C@H]1CN(c2ccc(C(F)(F)F)c(SCc3ccccc3Cl)n2)CCN1 [Example 38, 1-[6-(2-Chloro-benzylsulfanyl)-5-trifluoromethyl-pyridin-2-yl]-3-(S)-methyl-piperazine, acetate] | 6 nM |
| FC(F)(F)c1ccc(N2CCNCC2)nc1OCCOc1cccc2cccnc12 [Example 21, 8-[2-(6-Piperazin-1-yl-3-trifluoromethyl-pyridin-2-yloxy)-ethoxyl-quinoline, acetate] | 246 nM |
